From PMC11678425, “(-)-Syringaresinol Exerts an Antidepressant-like Activity in Mice by Noncompetitive Inhibition of the Serotonin Transporter” (Pharmaceuticals, 2024)

What was measured:
hSERT I327A = target: T1, hSERT I327A (Homo sapiens, UniProt P31645, I327A); experiment: ASP^+ binding, hSERT I327A; settings: S2 site mutant, read-out: SYR IC50 for Binding
T1 construct: forward and reverse primers were used to amplify a full-length hSERT; expressed in transfected cells; host or cells: HeLa cells, transient, pcDNA3.1

hSERT Y579A [1] = target: T2, hSERT Y579A (Homo sapiens, UniProt P31645, Y579A); experiment: ASP^+ binding, hSERT Y579A; settings: S2 site mutant, read-out: SYR IC50 for Binding
T2 construct: forward and reverse primers were used to amplify a full-length hSERT; expressed in transfected cells; host or cells: HeLa

hSERT = hSERT (Homo sapiens, UniProt P31645); settings: 22 °C
hSERT E493N = target: T3, hSERT E493N (Homo sapiens, UniProt P31645, E493N); experiment: APP^+ uptake, hSERT E493N; type: cell-based; settings: S2 site mutant, read-out: SYR IC50 for Transport
T3 construct: forward and reverse primers were used to amplify a full-length hSERT; expressed in transfected cells; host or cells: HeLa cells, transient, pcDNA3.1

hSERT P560G [2] = target: T4, hSERT P560G (Homo sapiens, UniProt P31645, P560G); experiment: ASP^+ binding, hSERT P560G; settings: S2 site mutant, read-out: SYR IC50 for Binding
T4 construct: forward and reverse primers were used to amplify a full-length hSERT; expressed in transfected cells; host or cells: HeLa cells, transient, pcDNA3.1

[3] = tested on: BDNF, PSD-95, GluA1, and vGluT1; experiment: Immunoblot of synaptic proteins in hippocampus of CUMS mice; type: in vivo, mouse; settings: same dosage as fluoxetine (10 mg/kg i.p.)
Description: Figure 8 SYR effects on the expression of c-Fos and synaptic proteins in the hippocampus. (A) Representative immunohistochemical images of c-Fos expression in the hippocampus with the indicated treatments. (B) Quantitative analysis for hippocampal c-Fos expression with various treatments. Protein expression level is expressed as a percentage of c-Fos fluorescence measured in the control group. Bars represent the mean ± SEM (n = 4). ** p < 0.01 compared with the control or CUMS group by one-way ANOVA followed by post hoc tests. (C) Representative immunoblots of the synaptic proteins BDNF, PSD-95, GluA1, and vGluT1 with various treatments. (D–G) Quantification of the expression of synaptic proteins BDNF (D), PSD-95 (E), GluA1 (F), and vGluT1 (G). The expression level is expressed as a percentage of the integrated density obtained from the control group. Bars represent the mean ± SEM (n = 4). * p < 0.05, ** p < 0.01 by one-way ANOVA followed by post hoc tests.
Synaptic proteins were extracted from mPFC or hippocampus tissues using RIPA lysis buffer, respectively. Expression of the indicated proteins under various treatments was then analyzed by immunoblotting, as previously reported. […] Quantification of immunoreactive protein bands was performed using Image J v1.53u, and GAPDH was used as an internal reference to normalize expression levels of those proteins, respectively.

hSERT P560G [4] = target: T4, hSERT P560G; experiment: APP^+ uptake, hSERT P560G; type: cell-based; settings: S2 site mutant, read-out: SYR IC50 for Transport
CUMS mice = settings: all tested dosages, i.p.
c-Fos = c-Fos immunohistochemistry in mPFC of CUMS mice; type: in vivo, mouse; settings: 10 mg/kg i.p.
Description: Figure 7 SYR effects on the expression of c-Fos and synaptic proteins in mPFC. (A) Representative immunohistochemical images of c-Fos expression in mPFC under the indicated treatments. Immunohistochemistry of c-Fos was performed with mPFC slices as described in Section 4. The slices were re-probed with anti-DAPI antibody. Immunofluorescence images for c-Fos (green) and DAPI (blue) were acquired by confocal microscopy. (B) Quantitative analysis for c-Fos expression in mPFC with various treatments. Protein expression is expressed as a percentage of c-Fos fluorescence measured in the control group. Bars represent the mean ± SEM (n = 4). * p < 0.05, ** p < 0.01 compared with the control or CUMS group by one-way ANOVA followed by post hoc tests, respectively. (C) Representative immunoblots of the synaptic proteins BDNF, PSD-95, GluA1, and vGluT1 with various treatments. (D–G) Quantification of the expression of the synaptic proteins BDNF (D), PSD-95 (E), GluA1 (F), and vGluT1 (G). The expression level is expressed as a percentage of the integrated density obtained from the control group. Bars represent the mean ± SEM (n = 4). * p < 0.05, ** p < 0.01 by one-way ANOVA followed by post hoc tests.
Mouse mPFC and hippocampal slices were prepared as previously described. […]

hSERT WT = target: T5, hSERT WT (Homo sapiens, UniProt P31645); experiment: APP^+ uptake, hSERT WT; type: cell-based
T5 construct: forward and reverse primers were used to amplify a full-length hSERT; expressed in transfected cells; host or cells: HeLa cells (CCL-2), transient, pcDNA3.1

hSERT Y579A [5] = target: T2, hSERT Y579A; experiment: APP^+ uptake, hSERT Y579A; type: cell-based; settings: S2 site mutant, read-out: SYR IC50 for Transport
hSERT P499G = target: T6, hSERT P499G (Homo sapiens, UniProt P31645, P499G); experiment: ASP^+ binding, hSERT P499G; settings: S2 site mutant, read-out: SYR IC50 for Binding
T6 construct: forward and reverse primers were used to amplify a full-length hSERT; expressed in transfected cells; host or cells: HeLa cells, transient, pcDNA3.1
T6 sequence (P31645 whole entry P499G): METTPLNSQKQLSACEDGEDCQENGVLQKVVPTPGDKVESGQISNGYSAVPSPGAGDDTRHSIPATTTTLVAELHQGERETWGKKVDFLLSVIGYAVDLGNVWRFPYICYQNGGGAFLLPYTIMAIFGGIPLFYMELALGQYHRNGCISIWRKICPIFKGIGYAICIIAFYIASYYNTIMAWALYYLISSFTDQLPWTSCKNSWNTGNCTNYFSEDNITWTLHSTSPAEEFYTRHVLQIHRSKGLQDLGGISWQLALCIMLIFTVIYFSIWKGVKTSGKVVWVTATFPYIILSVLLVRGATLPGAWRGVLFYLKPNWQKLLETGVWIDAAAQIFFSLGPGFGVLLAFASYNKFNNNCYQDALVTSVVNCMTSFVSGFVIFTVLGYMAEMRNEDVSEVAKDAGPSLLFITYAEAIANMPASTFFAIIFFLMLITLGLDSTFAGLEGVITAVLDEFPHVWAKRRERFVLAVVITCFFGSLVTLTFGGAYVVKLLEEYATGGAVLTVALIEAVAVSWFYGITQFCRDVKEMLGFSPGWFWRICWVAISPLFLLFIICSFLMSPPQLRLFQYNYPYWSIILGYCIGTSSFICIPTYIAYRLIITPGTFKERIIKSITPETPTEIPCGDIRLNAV

T5 sequence (P31645 whole entry): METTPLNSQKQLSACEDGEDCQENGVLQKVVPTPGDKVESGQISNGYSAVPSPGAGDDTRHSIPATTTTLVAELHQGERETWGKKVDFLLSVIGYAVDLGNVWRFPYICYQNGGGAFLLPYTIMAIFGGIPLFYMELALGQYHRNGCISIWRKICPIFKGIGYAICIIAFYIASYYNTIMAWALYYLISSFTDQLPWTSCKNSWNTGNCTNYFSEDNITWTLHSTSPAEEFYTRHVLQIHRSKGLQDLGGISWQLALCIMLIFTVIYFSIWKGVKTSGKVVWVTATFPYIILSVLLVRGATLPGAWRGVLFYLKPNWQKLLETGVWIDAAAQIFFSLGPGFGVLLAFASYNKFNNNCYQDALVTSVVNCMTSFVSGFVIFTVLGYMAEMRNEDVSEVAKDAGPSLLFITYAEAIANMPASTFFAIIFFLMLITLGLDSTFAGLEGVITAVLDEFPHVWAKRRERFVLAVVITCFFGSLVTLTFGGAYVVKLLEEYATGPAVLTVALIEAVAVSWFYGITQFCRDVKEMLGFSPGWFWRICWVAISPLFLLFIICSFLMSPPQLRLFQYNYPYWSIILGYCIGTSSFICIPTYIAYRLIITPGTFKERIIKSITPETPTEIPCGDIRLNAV
Chain of hSERT (P31645 whole entry): as above
T2 sequence (P31645 whole entry Y579A): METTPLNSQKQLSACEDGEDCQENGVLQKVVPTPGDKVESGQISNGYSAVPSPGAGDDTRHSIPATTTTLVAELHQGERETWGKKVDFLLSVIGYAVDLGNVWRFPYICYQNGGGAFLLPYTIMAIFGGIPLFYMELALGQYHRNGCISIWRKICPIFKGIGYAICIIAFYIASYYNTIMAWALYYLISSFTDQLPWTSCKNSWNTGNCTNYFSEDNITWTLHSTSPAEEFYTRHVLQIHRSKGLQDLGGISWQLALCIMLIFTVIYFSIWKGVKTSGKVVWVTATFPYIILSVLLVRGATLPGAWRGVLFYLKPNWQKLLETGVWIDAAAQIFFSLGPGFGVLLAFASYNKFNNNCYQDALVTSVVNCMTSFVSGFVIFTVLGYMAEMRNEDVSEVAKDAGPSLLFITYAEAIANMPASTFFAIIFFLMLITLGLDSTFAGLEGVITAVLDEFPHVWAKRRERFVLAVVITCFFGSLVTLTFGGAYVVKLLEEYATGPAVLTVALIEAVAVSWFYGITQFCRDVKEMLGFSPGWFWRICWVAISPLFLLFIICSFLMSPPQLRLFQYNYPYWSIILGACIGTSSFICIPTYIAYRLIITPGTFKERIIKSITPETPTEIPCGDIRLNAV
T4 sequence (P31645 whole entry P560G): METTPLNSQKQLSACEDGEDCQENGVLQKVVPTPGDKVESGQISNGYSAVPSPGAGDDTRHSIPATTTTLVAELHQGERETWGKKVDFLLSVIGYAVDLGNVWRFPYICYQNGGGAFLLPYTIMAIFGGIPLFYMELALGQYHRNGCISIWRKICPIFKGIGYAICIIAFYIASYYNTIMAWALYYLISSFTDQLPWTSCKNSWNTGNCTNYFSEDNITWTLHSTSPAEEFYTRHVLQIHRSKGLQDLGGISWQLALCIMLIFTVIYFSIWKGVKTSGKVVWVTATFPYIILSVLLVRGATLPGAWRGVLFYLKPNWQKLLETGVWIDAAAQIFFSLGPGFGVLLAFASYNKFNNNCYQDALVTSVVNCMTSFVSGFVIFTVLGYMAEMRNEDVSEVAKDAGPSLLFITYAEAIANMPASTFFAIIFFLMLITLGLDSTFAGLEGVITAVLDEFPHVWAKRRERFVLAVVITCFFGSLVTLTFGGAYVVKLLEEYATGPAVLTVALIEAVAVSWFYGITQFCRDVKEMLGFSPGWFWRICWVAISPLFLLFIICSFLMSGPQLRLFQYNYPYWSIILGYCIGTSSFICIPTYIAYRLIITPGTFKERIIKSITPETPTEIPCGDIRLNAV
T3 sequence (P31645 whole entry E493N): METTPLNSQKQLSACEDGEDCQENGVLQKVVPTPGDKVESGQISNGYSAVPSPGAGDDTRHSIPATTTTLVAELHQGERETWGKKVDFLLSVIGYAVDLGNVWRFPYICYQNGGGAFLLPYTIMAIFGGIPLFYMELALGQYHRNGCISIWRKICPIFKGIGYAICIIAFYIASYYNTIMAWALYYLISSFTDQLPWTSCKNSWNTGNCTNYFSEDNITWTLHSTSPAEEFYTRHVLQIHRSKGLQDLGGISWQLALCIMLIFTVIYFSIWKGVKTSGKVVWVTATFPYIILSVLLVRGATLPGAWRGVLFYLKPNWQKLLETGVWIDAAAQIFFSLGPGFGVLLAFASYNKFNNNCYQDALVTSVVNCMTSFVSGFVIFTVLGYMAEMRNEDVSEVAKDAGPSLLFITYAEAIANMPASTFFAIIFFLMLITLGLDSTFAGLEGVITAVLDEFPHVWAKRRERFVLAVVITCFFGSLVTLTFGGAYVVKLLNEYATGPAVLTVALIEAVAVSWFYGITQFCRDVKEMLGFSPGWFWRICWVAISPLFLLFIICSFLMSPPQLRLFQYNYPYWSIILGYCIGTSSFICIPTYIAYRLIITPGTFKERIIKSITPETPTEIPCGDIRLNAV
T1 sequence (P31645 whole entry I327A): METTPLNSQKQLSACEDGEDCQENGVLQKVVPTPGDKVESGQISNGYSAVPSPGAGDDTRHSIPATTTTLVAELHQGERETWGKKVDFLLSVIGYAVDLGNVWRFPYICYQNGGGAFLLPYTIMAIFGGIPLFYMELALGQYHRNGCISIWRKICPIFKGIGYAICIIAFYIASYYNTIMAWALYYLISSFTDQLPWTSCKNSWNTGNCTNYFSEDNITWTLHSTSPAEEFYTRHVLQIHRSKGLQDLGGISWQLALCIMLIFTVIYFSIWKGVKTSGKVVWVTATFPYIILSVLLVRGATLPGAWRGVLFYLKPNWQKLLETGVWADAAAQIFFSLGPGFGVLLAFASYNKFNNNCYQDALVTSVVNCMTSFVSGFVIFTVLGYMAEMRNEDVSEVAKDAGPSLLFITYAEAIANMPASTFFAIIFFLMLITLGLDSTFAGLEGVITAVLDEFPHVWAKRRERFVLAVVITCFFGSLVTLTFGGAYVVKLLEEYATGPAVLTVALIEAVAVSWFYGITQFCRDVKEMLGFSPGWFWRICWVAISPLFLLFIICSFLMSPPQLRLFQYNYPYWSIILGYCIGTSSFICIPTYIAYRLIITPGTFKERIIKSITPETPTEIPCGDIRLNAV

`COc1cc([C@@H]2OC[C@@H]3[C@H]2CO[C@H]3c2cc(OC)c(O)c(OC)c2)cc(OC)c1O` [SYR, (-)-syringaresinol] was tested, and the IC50 (hSERT I327A) was 53.2 ± 7.01 µM, the IC50 (hSERT Y579A [1]) was 28.62 ± 0.15 µM and the “effect on 5-HT-induced APP^+ efflux” value (hSERT; 10 μM + 10 μM 5-HT) was “effectively blocked”. For the same compound, the “effect on basal APP^+ efflux” value (hSERT; 10 μM, cells preloaded with APP^+) was “not by SYR”, the IC50 (hSERT E493N) was 9.16 ± 0.34 µM and the IC50 (hSERT P560G [2]) was 14.7 ± 0.26 µM. For the same compound, the “CUMS-induced decrease in expression of synaptic proteins in the hippocampus” value [3] was “effectively alleviate”, the IC50 (hSERT P560G [4]) was 5.99 ± 0.96 µM and the fatality rate (CUMS mice) was “zero fatality rate”. For the same compound, the “CUMS-induced decrease in expression of c-Fos in mPFC” value (c-Fos) was “significantly elevated”, the IC50 (hSERT WT; WT, APP^+ uptake, SYR added 5 min prior to APP^+, read-out: SYR IC50 for Transport) was 0.25 ± 0.01 µM and the “Vmax of APP^+ transport with addition of SYR” value (hSERT WT; […] SYR) was 12.95 ± 1.52 AFU/min. For the same compound, the “increase of inhibitory potency compared with SAG” value (hSERT WT; compared with glycoside derivative SAG) was “approximately 10 fold”, the “mode of inhibition of APP^+ transport” value (hSERT WT; decreased Vmax, little change in Km) was “noncompetitive inhibitor” and the IC50 (hSERT Y579A [5]) was 16.3 ± 1.06 µM. The IC50 (hSERT P499G) was 46.8 ± 2.35 µM.
